# Results: EP0099121A2, “Pharmaceutical compositions” (Bristol-Myers Company, priority 1982, dated 1984)
# Test system: Gastric Acid Output
# Experiment: Gastric antisecretory activity in the Gastric Fistula Rat (Table 2 title: Two-Hour Pylorus Ligated Rat)
# Assay type: in vivo, Long Evans rats
# Details: Rattus norvegicus, ip; Route of Administration i.p.; numbers in parentheses are the 95% confidence limits; read-out: ED50
# Experimental: Male Long Evans rats weighing about 240-260 grams at the time of cannula implantation are used. The design and implantation of the stainless steel cannula into the anterior wall of the fore-stomach are carried out essentially as described by Pare et al. [Laboratory Animal Science, 27, 244 (1977)]. The fistula components are designed and the operative procedure is carried out exactly as described in the above reference. Post operatively the animals are individually housed in solid bottom cages with sawdust and are allowed food and water ad libitum throughout the entire recovery period. Animals are not used for test purposes for at least 15 days after the operative procedure.
# The animals are fasted but allowed water ad libitum for 20 hours before the testing procedure is to begin. Immediately prior to collection, the cannula is opened and the stomach washed gently with 30-40 mL of warm saline or distilled water to remove any residual contents. The catheter is then screwed into the cannula in place of the plugging screw and the rat is placed in a clear plastic rectangular cage measuring 40 cm long, 15 cm wide and 13 cm high. The bottom of the cage has a slit approximately 1.5 cm wide and 25 cm long running down the center to accommodate the catheter which hangs through it. In this way the rat is not restricted and can move freely about the cage during collection periods. The remainder of the assay is carried out as described by Ridley et al. [Research Comm. Chem. Path. Pharm., 17, 365 (1977)].
# Gastric secretions collected during the first hour after washing the stomach are discarded as they may be contaminated. For oral evaluation, the catheter is then removed from the cannula and replaced with the plugging screw. Water (2 mL/kg) is administered orally via gastric intubation and the animal is returned to the cage for 45 minutes. After this time the plugging screw is removed and replaced with a catheter to which a small plastic vial has been attached to collect the gastric secretions. A two hour sample is collected (this represents the control secretion), the catheter removed and replaced with the plugging screw. The test drug is now administered orally in a volume of 2 mL/kg via gastric intubation. Forty-five minutes later the plugging screw is again removed, replaced with the catheter attached to a small plastic vial and another 2 hour sample is collected. The secretions in the second sample are compared to those of the control sample in order to determine the effects of the test drug.
# When test compounds are to be evaluated parenterally, the animal is injected ip or sc with the test compound vehicle in a volume of 2 mL/kg immediately after discarding the initial 60 minute collection. A two hour sample is collected (control secretion) and the animals are injected either ip or sc with the test compound in a volume of 2 mL/kg. An additional two hour sample is collected and its secretions are compared to those of the control period to determing drug effects.
# The samples are centrifuged in a graduated tube for volume determination. Titratable acidity is measured by titrating a one mL sample to pH 7.0 with 0.02N NaOH, using an Autoburet and an electrometric pH meter (Radiometer). Titratable acid output is calculated in microequivalents by multiplying the volume in milliliters by the acid concentration in milliequivalents per liter.
# Results are expressed as percent inhibition relative to control readings. Dose response curves are constructed and ED values are calculated by regression analyses. At least three rats are used at each dosage level and a minimum of three dosage levels are utilized for determination of a dose response curve.
row,Compound,ED50 [µmol/kg]
1,"C#CCNC1=NS(=O)(=O)N=C1NCCSCc1nc[nH]c1C [Example 1, 3-{2-[(5-Methyl-1H-imidazol-4-yl)methylthio}ethylamino}-4-(2-propynyl)amino-1,2,5-thiadiazole 1,1-dioxide]",12.5
2,"Cc1[nH]cnc1CSCCNC1=NS(=O)(=O)N=C1NCCSCc1csc(N=C(N)N)n1 [Example 3, 3-{2-[(2-Guanidinothiazol-4-yl)methylthio]ethylanino}-4-{2-[(5-methyl-1H-imidazol-4-yl)methylthio]ethylamino}-1,2,5-thiadiazole 1,1-dioxide]",0.46
3,"Cc1[nH]cnc1CSCCNC1=NS(=O)(=O)N=C1O [Example 7, 3-Hydroxy-4-{2-[(5-methyl-1H-imidazol-4-yl)methylthio]-ethylamino}-1,2,5-thiadiazole 1,1-dioxide]",31.1
4,"C#CCNC1=NS(=O)(=O)N=C1NCCSCc1csc(N=C(N)N)n1 [Example 32, 3-{2-[(2-Guanidinothiazol-4-yl)methyithio]ethylamino}-4-(2-propynyl)amino-1,2,5-thiadiazole 1,1-dioxide]",0.08

# Same assay, conditions: Rattus norvegicus, sc; Route of Administration s.c.; numbers in parentheses are the 95% confidence limits; read-out: ED50
row,Compound,ED50 [µmol/kg]
1,CNC1=NS(=O)(=O)N=C1NCCSCc1nc[nH]c1C [Example 2],~100
2,"C#CCNC1=NS(=O)(=O)N=C1NCCSCc1ccc(CN(C)C)o1 [Example 13, 3-{2-[(5-Dimethylaminomethyl-2-furyl)methvlthio]ethyl-amino}-4-(2-proynyl)amino-1,2,5-thiadiazole 1,1-dioxide]",0.46
3,"C#CCN(C)Cc1ccc(CSCCNC2=NS(=O)(=O)N=C2NC)o1 [Example 14, 3-Methylamino-4-{2-[(5-([N-methyl-N-(2-propynyl)amino]-methyl}-2-furyl)methylthio]ethylamino}-12,5-thiadiazole 1,1-dioxide]",~25
4,"CN(C)Cc1ccc(CSCCNC2=NS(=O)(=O)N=C2O)o1 [Example 17, 3-{2-[(5-Dimethylaminomethyl-2-furyl)methylthio]ethylamino}-4-hydroxy^-1,2,5-thiadiazole 1,1-dioxide]",33
5,"C=CCNC1=NS(=O)(=O)N=C1NCCSCc1ccc(CN(C)C)o1 [Example 19, 3-Allylamino-4-{2-[(5-dimethylaminomethyl-2-furyl)methyl-thio]ethylamino}-1,2,5-thiadiazole 1,1-dioxide]",0.34
6,"CNC1=NS(=O)(=O)N=C1NCCCCc1ccc(CN(C)C)o1 [Example 21, 3-{4-(5-Dimethylaminomethyl-2-furyl)butylamino}-4-methvlamino-1,2,5-thiadiazole 1,1-dioxide]",0.3
7,"CNC1=NS(=O)(=O)N=C1NCCSCc1csc(CN(C)C)n1 [Example 33, 3-{2-[(2-Dimethylaminomethyl-4-thiazolyl)methylthio]ethyl-amino}-4-methylamino-1,2,5-thiadiazole 1,1-dioxide]",0.57
8,"N=C(N)Nc1nc(CSCCNC2=NS(=O)(=O)N=C2NCCO)cs1 [Example 36, 3-{2-[(2-Guanidinothiazol-4-yl)methylthio]ethylamino}-4-(2-hydroxyethylamino)-1,2,5-thiadiazole 1,1-dioxide]",1.59
9,CN(C)Cc1ccc(CSCCNC2=NS(=O)(=O)N=C2NN)o1 [Example 51],55
10,"CNC1=NS(=O)(=O)N=C1NCCSCc1ccccn1 [Example 52, 3-Methylamino-4-{2-[(2-pyridyl)methylthio]ethylamino}-1,2,5-thiadiazole 1,1-dioxide]",~350
11,"CCNc1n[s+]([O-])nc1NCCSCc1ccc(CN(C)C)o1 (stereo not drawn) [Example 84, 3-{2-[(5-Dimethylaminomethyl-2-furyl)methylthio]ethylartino}-4-ethylamino-1,2,5-thiadiazole 1-oxide]",0.15
12,"CCCNC1=NS(=O)(=O)N=C1NCCSCc1ccc(CN(C)C)o1 [Example 85, 3-{2-[(5-Dimethylaminomethyl-2-furyl)methylthio]ethylamino}-4-propylamino-1,2,5-thiadiazole 1,1-dioxide]",0.14
13,"CN(C)Cc1ccc(CSCCNC2=NS(=O)(=O)N=C2NCc2ccccc2)o1 [Example 89, 3-Benzylamino-4-{2-[(5-dimethylaminomethyl-2-furyl)-methylthio]ethylamino}-1,2,5-thiadiazole 1,1-dioxide]",0.25
14,"CNC1=NS(=O)(=O)N=C1NCCSCc1cccc(CN(C)C)c1 [Example 90, 3-{2-[(3-{Dimethylaminomethyl}phenyl)methylthio]ethylamino}-4-methylamino-1,2,5-thiadiazole 1,1-dioxide]",0.86
15,"CN(C)Cc1cccc(CSCCNc2n[s+]([O-])nc2N)c1 (stereo not drawn) [Example 91, 3-Arnino-4-{2-[(3-{dinethylaninomethyl}henyl)methvlthio}-ethvlamino}-1,2,5-thiadiazole 1-oxide]",1.3
16,"CNc1n[s+]([O-])nc1NCCSCc1ccc(CN(C)C)s1 (stereo not drawn) [Example 92, 3-{2-[(5-Dimethylaminomethyl-2-thienyl)methylthio]-ethylamino}-4-methylamino-1,2,5-thiadiazole 1-oxide]",0.24
17,"CN(C)Cc1ccc(CCCCNC2=NS(=O)(=O)N=C2N)o1 [Example 93, 3-Amino-4-{4-(5-dimethylaminomethyl-2-furyl)butylamino}-1,2,5-thiaciazole 1,1-dioxide]",0.14
18,"CN(C)Cc1nc(CSCCNC2=NS(=O)(=O)N=C2N)cs1 [Example 94, 3-A-mino-4-{2-[(2-dinethylaminomethyl-4-thiazolyl)methylthio)-ethylamino}-1,2,5-thiadiazole 1,1-dioxide]",0.44
19,"CNC1=NS(=O)(=O)N=C1NCCSCc1cnc(NC(=N)N)s1 [Example 95, 3-{2-[(2-Guanidinothiazol-5-yl)methylthio]ethylamino}-4-methylamino-1,2,5-thiadiazole 1,1-dioxide]",~15
20,"NC(N)=Nc1ncc(CSCCNc2n[s+]([O-])nc2N)s1 (stereo not drawn) [Example 96, 3-Psnino-4-{2-[(2-guanidinothiazol-5-yl)methylthio]-ethylamino}-1,2,5-thiadiazole 1-oxide]",~15
21,"CN(C)Cc1ccc(CSCCNC2=NS(=O)(=O)N=C2NC2CC2)o1 [Example 97, 3-Cyclopropylamino-4-{2-[(5-dimethylaminomethyl-2-furyl)-methylthio]ethylamino}-1,2,5-thiadiazole 1,1-dioxide]",~3
22,"CN(C)Cc1ccc(CSCCNC2=NS(=O)(=O)N=C2NCC2CC2)o1 [Example 98, 3-Cyclopropylmethylamino-4-{2-[ (5-dimethylaminomethyl-2-furyl)methylthio]ethylamino}-1,2,5-thiadiazole 1,1-dioxide]",0.52

# Same assay, conditions: Route of Administration s.c.; numbers in parentheses are the 95% confidence limits
row,Compound,ED50
1,"3-{2-[(5-Dimethylaminomethyl-2-furyl)methy1thio]ethylamino}-4-dodecylamino-1,2,5-thiadiazole 1,1-dioxide [Example 106]",~80 µmol/kg
2,"3-{2-[(5-Dimethylaminomethyl-2-furyl)methylthio]-ethylamino}-4-pieridino-1,2,5-thiadiazole 1,1-dioxide [Example 102]",~15 µmol/kg
3,"3-{2-[(5-Dimethylaminomethyl-2-furyl)methylthio]ethyl- amino}-4-dinethylamino-1,2,5-thiadiazole 1,1-dioxide [Example 28]",1.39 (0.39-4.91) μmoles/kg
4,CNCc1ccc(CSCCNC2=NS(=O)(=O)N=C2NC)o1 [20 A],1.15 (0.32-3.7) μmoles/kg
5,CNC1=NS(=O)(=O)N=C1NCCCOc1cccc(CN2CCCC2)c1 [144 a],0.095 (0.033-0.30) μmoles/kg
6,CNC1=NS(=O)(=O)N=C1NCCCOc1cccc(CN2CCC(C)CC2)c1 [144 b],0.025 (0.0087-0.065) μmoles/kg
7,CNC1=NS(=O)(=O)N=C1NCCCOc1cccc(CN2CCOCC2)c1 [144 d],0.91 (0.36-3.2) μmoles/kg
8,Nc1n[s+]([O-])nc1NCCCOc1cccc(CN2CCCC2)c1 (stereo not drawn) [145 a],0.056 (0.021-0.18) μmoles/kg
9,CC1CCN(Cc2cccc(OCCCNc3n[s+]([O-])nc3N)c2)CC1 (stereo not drawn) [145 b],~0.06 µmol/kg
10,NC1=NS(=O)(=O)N=C1NCCCOc1cccc(CN2CCOCC2)c1 [146 d],0.28 (0.066-1.21) μmoles/kg
